Source: patent publication US9617330B2, “Chemorepulsion of cells” (Celtaxsys, Inc., priority 2006, dated 2017)

What was measured:
B cells = test: High throughput transmigration assay (Example 9), chemorepulsion; type: cell-based, human; parameters: key: ratio of chemorepulsion (CR) to spontaneous migration (SM), CR/SM; conditions: mean of three donors at concentration of highest activity
Description: (§1) An agent's repellent index is the ratio of chemorepulsion (CR) to spontaneous migration (SM) induced by the agent, i.e., [(CR)/(SM)]. […] For example, in calculating a RI for an agent, migratory responses including chemorepulsion (CR) and spontaneous migration (SM) may be measured over several decades or log scales of concentration. If, over any two consecutive measurements at concentrations which differ by at least 10 fold, the ratio of CR to SM at each of the two contiguous measurements is equal to or greater than 1.2, then the agent is considered a validated chemorepellent.
(§2) For primary human T cells, up to 80 ml of blood is drawn from a human donor in sodium heparin Vacutainer tubes (Becton-Dickinson). The blood (between 10 and 15 ml per tube) is then layered onto 30 ml of Lymphocyte Separation Medium (LSM) (Cellgro, Herndon, Va.) in a 50 ml conical centrifuge tube and centrifuged for 20 minutes at 2440×g in a swinging bucket rotor. After removing the majority of the plasma from the top of each tube, the peripheral blood mononucleocyte (PBMC) layer is removed and transferred to fresh 50 ml conical centrifuge tubes. The tubes are then filled to 50 ml with IMDM and centrifuged for 10 minutes at 500×g. All but approximately 5 ml of the supernatant is then removed and the pellet resuspended with 25 ml IMDM and the centrifugation repeated. After removal of the supernatant, the cells are resuspended and combined to one 50 ml tube (per subject) and brought to a total volume of 50 ml. The cells are then counted using a hemacytometer (Reichert). After centrifugation under the same conditions, the supernatant is removed and the cells processed using the appropriate Miltenyi Biotec (Auburn, Calif.) negative selection kit to enrich for the desired cell type according to manufacturers instructions. The resulting purified cells are then diluted to 50 ml with IMDM. After centrifugation at 500×g for 10 minutes, the supernatant is removed and the cells resuspended in 15 ml IMDM supplemented with 0.5% heat inactivated fetal calf serum (FCS) (ATCC, Manassas, Va.). After another centrifugation for 10 minutes at 500×g, the supernatant is again removed and the cells resuspended in 7 ml 0.5% FCS in IMDM (assay medium) and transferred to a 15 ml conical centrifuge tube. The cells are then quantitated using a hemacytometer. When enriching for monocytes, the concentration of cells is adjusted to 2×10^7 per ml by centrifugation and removal of the appropriate volume of assay medium. For all other cell types, the tube cap is replaced with one from a 25 cm^2 tissue culture flask (Corning) and the cells stored overnight in a humidified 37° C. incubator with 5% CO2. The concentration of the cells is adjusted as for monocytes just prior to transmigration assay of Example 9.
(§3) Migration away from a chemical or biological agent (chemorepulsion (CR)) was measured using ChemoTx plates (Neuroprobe). These plates contain a planar polycarbonate or polyester membrane that has been etched and perforated so that cells can move along the etched tracks and fall through perforation holes, enabling the cells to be collected and the number of migrated cells quantified (FIGS. 5-6). Several dilutions (normally 4 in 10-fold increments) are prepared of the agent of interest. For neutrophils, plates with 3 μm pore membranes are used, while for all other primary cell types, 5 μm pore membranes are used. Membranes may, or may not, be coated with polyvinylpyrrolidine (PVP) as a wetting agent.
(§4) For spontaneous migration controls and chemorepulsion (CR) assays, 31 μl of assay medium is pipetted into the lower well of the transmigration apparatus (FIGS. 5-6). For spontaneous migration controls and chemoattraction (CA) assays, 29 μl of assay medium is pipetted into upper chamber of the transmigration apparatus (FIG. 5). For CR, the upper well assay medium contains the agent or candidate chemorepellent. […]

Monocytes = test: as above; type: cell-based, human; conditions: mean of three donors at concentration of highest activity, range 0.00125-1.25 μM
Description: as §1, §2
It is noted that this procedure may be used to isolate and/or purify monocytes. In the monocyte purification method, a further step is included for platelet removal via the use of CD61 microbeads also purchased from Miltenyi Biotec (Auburn, Calif.).
as §3
For spontaneous migration controls and chemorepulsion (CR) assays, 31 μl of assay medium is pipetted into the lower well of the transmigration apparatus (FIGS. 5-6). […]

CD8+ = test: as above; type: cell-based, human; conditions: mean of three donors at concentration of highest activity, range 0.00125-1.25 μM
Description: as §1, §2, §3, §4

[1] = test system: Human primary CD8+ lymphocytes; test: Trans-well migration assay (Example 3 method), unimodal fugetaxin test; type: cell-based; parameters: key: A “+” in the Table indicates a positive hit as a unimodal fugetaxin, as that term is defined herein, for that particular cell type; conditions: methods of Example 3
Neutrophils = test: High throughput transmigration assay (Example 9), chemorepulsion; type: cell-based, human
[2] = test system: Human primary CD4+ lymphocytes; test: Trans-well migration assay (Example 3 method), unimodal fugetaxin test; type: cell-based; parameters: key: A “+” in the Table indicates a positive hit as a unimodal fugetaxin, as that term is defined herein, for that particular cell type; conditions: methods of Example 3
Monocyte = test: Trans-well migration assay (Example 1), net migratory response; conditions: Monocyte; net observed response
Description: Prior to beginning the assay 0.5% Fetal Calf Serum (FCS) in Iscove's Modified Dulbecco's Medium (IMDM) is prepared and stored on ice (Assay Medium). Migratory cells at a concentration of 2×10^7 cells/ml are suspended in Assay Medium. T-cells isolated from donor blood or buffy coats are allowed to rest overnight in Assay Medium at 37° C. in 5% CO2. Neutrophils, monocytes and B cells are utilized as soon as they are purified from donor blood or other source of human origin. Four serial (10×) dilutions of the ligand are then prepared in Assay Medium (normally 10 μg/ml to 0.01 μg/ml).
Plates are removed from the packaging, leaving the membrane behind and intact. The membrane is set aside. Into each well is pipetted 31 μl of solution. For media controls and fugetaxis (chemorepellent) samples, Assay Medium is used. For chemoattraction samples, the appropriate dilution of agent in assay medium is used.
Using a sterile needle, all small bubbles present in each well are popped and the membrane is carefully placed onto the plate, starting at one side and slowly lowering the other edge onto the plate.
Then 29 μl is pipetted into each circle imprinted on the polycarbonate or polyester membrane. For media controls and chemoattraction samples, Assay Medium is used. For fugetaxis (chemorepellent) samples, the appropriate dilution of ligand in assay medium is used.
To each 29 uL aliquot above is added 2 μl of cells (40,000 cells). It is important to ensure that before beginning the cells are well suspended and that they are mixed. This mixing can be accomplished by agitating the tube between each addition.
The plate is then covered with the supplied lid and incubated 1-3 hours in a humidified incubator at 37° C. in 5% CO2. Following the incubation period, the liquid from the top of the plate is removed with a tissue or similar blotting material (e.g. a Kimwipe). The membrane is carefully removed from the top of the plate and discarded. […] Using a multichannel pipettor, each well of the microplate is rinsed with 25 μl Phosphate Buffered Saline (Mediatech #21-040-CV) and transferred to the same wells in the white microplate. Using a multichannel pipettor, 50 μl CellTiter-Glo Luminescent Cell Viability Assay (Promega #G7572) is added to each well and mixed.
The plate is read using the Perkin Elmer Victor^3V plate reader using the Large Aperture Luminescence setting at 8 mm height above the plate with a dwell time of 1 s to quantify the number of migrated cells.
The results reported reflect the net observed migratory response of the cells to the ligand and are not based on the definition of unimodal fugetaxins.

[3] = test system: Human primary neutrophils; test: Trans-well migration assay (Example 3 method), unimodal fugetaxin test; type: cell-based; parameters: key to Unimodal fugetaxin hit, Neutrophils: A “+” in the Table indicates a positive hit as a unimodal fugetaxin, as that term is defined herein, for that particular cell type; conditions: for Unimodal fugetaxin hit, Neutrophils: human neutrophils, methods of Example 3
[4] = test system: Eo-HL60 (HL-60 clone 15 differentiated to eosinophil-like phenotype); test: Trans-well migration assay (Example 1), net migratory response; type: cell-based, human; conditions: net observed response
CD4+ = test: High throughput transmigration assay (Example 9), chemorepulsion; type: cell-based, human; conditions: mean of three donors at concentration of highest activity, range 0.00125-1.25 μM
Description: as §1, §2, §3, §4

T lymphocytes = test: as above; type: cell-based, human; conditions: one donor, triplicate, ± SD
Description: as §1, §2, §3, §4

[5] = Neutrophils, mean of three donors at concentration of highest activity, range 0.00125-1.25 μM

CCL2: chemokine
Repellent Index (B cells; range 0.00125-1.25 μM): 1.5 | Repellent Index (Monocytes): 1.7

Galectin-3: carbohydrate binding protein (galectin), full-length, purchased; accession P17931/BAA22164/NP_002297
Repellent Index (CD8+): 1.3 | Unimodal fugetaxin hit, CD8+ [1]: + | Repellent Index (Neutrophils; [5]): 1.6 | Unimodal fugetaxin hit, CD4+ [2]: + | Migratory Response (Monocyte): chemorepulsion | Unimodal fugetaxin hit, Neutrophils [3]: + | chemotactic (chemoattractant) versus fugetactic (chemorepellent) response of neutrophils ([3]; neutrophils, 1 hour, FIGS. 3 and 4, at 10 uM where stated): almost three times as fugetactic (chemorepellent) as chemotactic (chemoattractant)

Pam3CSK4 [reference compound]
Migratory Response [4]: chemorepulsion | Unimodal fugetaxin hit, CD8+ [1]: + | Repellent Index (Neutrophils; [5]): 4.9 | Unimodal fugetaxin hit, CD4+ [2]: + | Unimodal fugetaxin hit, Neutrophils [3]: +

HSP70: heat shock protein; accession AAA02807
Migratory Response [4]: chemorepulsion | Repellent Index (CD4+): 4.9 | Repellent Index (T lymphocytes; 0.00125 μM): 0.96 ± 0.13 | Repellent Index (T lymphocytes; 0.0125 μM): 1.15 ± 0.24 | Repellent Index (T lymphocytes; 0.125 μM): 1.65 ± 0.35 | Repellent Index (T lymphocytes; 1.25 μM): 14.56 ± 0.61 | Repellent Index (CD8+): 11.6 | Repellent Index (Neutrophils; [5]): 8.8 | Unimodal fugetaxin hit, CD4+ [2]: + | Unimodal fugetaxin hit, Neutrophils [3]: +

Elafin: elastase inhibitor (AQEPVKGPVSTKPGSCPIILIRCAMLNPPNRCLKDTDCPGIKKCCEGSCGMACFVPQ; UniProt P19957 61-117, looked up)
Repellent Index (CD4+): 1.3 | Repellent Index (Neutrophils; [5]): 2.0 | Repellent Index (Neutrophils; neutrophils, 0.00125 μM, one donor, triplicate, ± SD): 1.33 ± 0.28 | Repellent Index (Neutrophils; neutrophils, 0.0125 μM, one donor, triplicate, ± SD): 1.31 ± 0.29 | Repellent Index (Neutrophils; neutrophils, 0.125 μM, one donor, triplicate, ± SD): 1.48 ± 0.22 | Repellent Index (Neutrophils; neutrophils, 1.25 μM, one donor, triplicate, ± SD): 2.42 ± 0.52

B1: CCL19: chemokine (protein, UniProt Q99731 22-98, looked up)
C-C motif chemokine 19: GTNDAEDCCLSVTQKPIPGYIVRNFHYLLIKDGCRVPAVVFTTLRGRQLCAPPDQPWVERIIQRLQRTSAKMKRRSS
Repellent Index (B cells; range 0.00125-1.25 μM): 2.0 | Repellent Index (CD4+): 1.7 | Repellent Index (Neutrophils; [5]): 1.5

B2: CCL8: chemokine (protein, UniProt P80075 24-99, looked up)
C-C motif chemokine 8: QPDSVSIPITCCFNVINRKIPIQRLESYTRITNIQCPKEAVIFKTKRGKEVCADPKERWVRDSMKHLDQIFQNLKP
Repellent Index (B cells; range 0.00125-1.25 μM): 2.6 | Repellent Index (Monocytes): 2.3

B3: S. typhimurium Flagellin: TLR ligand; accession M11332 (protein, UniProt P06179 2-495, looked up)
Flagellin: AQVINTNSLSLLTQNNLNKSQSALGTAIERLSSGLRINSAKDDAAGQAIANRFTANIKGLTQASRNANDGISIAQTTEGALNEINNNLQRVRELAVQSANSTNSQSDLDSIQAEITQRLNEIDRVSGQTQFNGVKVLAQDNTLTIQVGANDGETIDIDLKQINSQTLGLDTLNVQQKYKVSDTAATVTGYADTTIALDNSTFKASATGLGGTDQKIDGDLKFDDTTGKYYAKVTVTGGTGKDGYYEVSVDKTNGEVTLAGGATSPLTGGLPATATEDVKNVQVANADLTEAKAALTAAGVTGTASVVKMSYTDNNGKTIDGGLAVKVGDDYYSATQNKDGSISINTTKYTADDGTSKTALNKLGGADGKTEVVSIGGKTYAASKAEGHNFKAQPDLAEAAATTTENPLQKIDAALAQVDTLRSDLGAVQNRFNSAITNLGNTVNNLTSARSRIEDSDYATEVSNMSRAQILQQAGTSVLAQANQVPQNVLSLLR
Repellent Index (B cells; range 0.01-10 μg/ml): 1.7 | Unimodal fugetaxin hit, CD8+ [1]: + | Repellent Index (Neutrophils; Neutrophils, mean of three donors at concentration of highest activity, range 0.01-10 μg/ml): 5.5 | Unimodal fugetaxin hit, CD4+ [2]: + | Migratory Response (Monocyte): chemorepulsion | Unimodal fugetaxin hit, Neutrophils [3]: +

B4: CXCL7: chemokine (protein, UniProt P02775 35-128, looked up)
Platelet basic protein: SSTKGQTKRNLAKGKEESLDSDLYAELRCMCIKTTSGIHPKNIQSLEVIGKGTHCNQVEVIATLKDGRKICLDPDAPRIKKIVQKKLAGDESAD
Repellent Index (Neutrophils; [5]): 3.9 | Repellent Index (Monocytes): 1.4

B5: CCL15: chemokine (protein, UniProt Q16663 22-113, looked up)
C-C motif chemokine 15: QFTNDAETELMMSKLPLENPVVLNSFHFAADCCTSYISQSIPCSLMKSYFETSSECSKPGVIFLTKKGRQVCAKPSGPGVQDCMKKLKPYSI
Repellent Index (Monocytes): 1.4
